Values joined by “and” are separate entries in the source; they are usually repeats but may differ in a detail not shown here. Identical values can stand only once.
Assays:
3 dpf zebrafish = assay: Exclusion of motion artefact: myocardial contractility under excitation-contraction uncouplers; format: in vivo; settings: for Effect on contraction of cardiomyocytes / myocardial contractility: drug added to embryo holding chamber
Description: Firstly, recordings were performed with and without cromakalim and secondly, comparing invasive (intracardial) and non-invasive surface recordings. Cromakalim was added to the embryo holding chamber and ECG signals were recorded before and after drug exposure (QTc values shown in Table S1). […] Therefore, as an independent approach we compared ECG signals from invasive and non-invasive electrode positioning. There was minimal difference between recordings taken invasively and non-invasively (n = 5; Fig. 2B, Table S2).

3 dpf zebrafish larvae = assay: ECG recording in zebrafish larvae before and after drug treatment; settings: for Mean interval duration QT / Mean interval duration QTc / Mean interval duration RR / Mean QTc interval duration, After: 3 dpf; for Mean interval duration QT / Mean interval duration QTc / Mean interval duration RR: n = 10; for Effect on heart rate (ƒH): immobilising agents, MESAB at very high concentrations, tubocurarine at any tested concentration; for AV block: at particular concentrations and exposure times; for Effect on QTc interval (in words): 3 dpf zebrafish larvae, over the tested concentrations
Description: For all experiments, except the anaesthetic and tubocurarine experiments, fish larvae were anaesthetised in ethyl-3 aminobenzoate methanesulfonate (0.3 mg/ml; Sigma) for 5–10 mins before transfer into 3 ml of embryo medium in the plate used for subsequent measurements. Once anaesthetised, one embryo was then transferred to the ECG recording plate (mini Petri dish with an unscented paraffin wax surface, containing 3 ml of fresh E3 embryo medium without MESAB). The embryo was positioned ventrally within a groove in the wax, and the tip (2 µm diameter) of a filled pre-pulled borosilicate glass micropipette (P84, World Precision Instruments) was positioned on the skin surface between the ventricle and atrium (no penetration) using micromanipulators (Narishige) and Inchworm step motors (Burleigh), viewed under a Nikon microscope (SMZ600). The micropipettes were filled with MicroFil (P85, World Precision Instruments) in 3 M potassium acetate solution (Sigma) and coloured with methylene blue (Sigma) to easier visualise the tips during recordings. A chloridised silver wire which carried the electrical signal to the amplifier was inserted into the micropipettes and a second reference electrode placed in the surrounding medium during recordings. The differential amplifier (NPI electronics) used for recording was operated in DC mode with the high pass filter set at 0.1 Hz. The raw ECG signals were digitised (PowerLab; ADI Instruments) and viewed using LabChart 7 (ADI Instruments).
Non-invasive recordings were taken by applying slight pressure over the surface of the heart using the tip of a glass capillary. Invasive recordings were taken by increasing the speed and also the distance moved by the step motor to puncture the skin over the heart. All of the recording equipment was housed on an air table within a grounded Faraday cage to minimise background noise. Experiments were performed at room temperature (21°C) except when otherwise stated. Temperature was controlled using a sensor placed in the recording plate and a homemade heating element (Cryocon 24 temperature controller). For optimisation experiments, recordings were taken for 5 mins. For the temperature experiments, embryos were initially acclimatised to each temperature for 30 mins before taking a recording of 5 mins. For drug treatments, ECG recordings were taken continuously after drug addition. A 5 mins segment before drug addition and a 15 minute segment where QT prolongation was first apparent by visual observation were selected for analysis.
All drug stocks were made using either DMSO or distilled water depending on solubility, then diluted using E3 embryo medium to make up the final concentrations for recording purposes with DMSO levels at 1%. ECG recordings were taken for 5 mins in 3 ml of embryo medium before addition of drug directly to the recording plate (1 ml) to produce the desired concentration by undergoing a 1 in 4 dilution.
Analysis of the digitised ECG signal was carried out using LabChart and the mean intervals for the ECG parameters R-R, QRS, QT and QTc were calculated. For drug treatments the percentage change in the corrected QT interval (QTc) before and after drug administration was compared. One way ANOVA analysis was then performed to determine statistical significance between differences observed.
Z factor scores were also calculated to determine the robustness of the ECG system as a screening tool, using the mean QTc percentage change before and after drug treatment for each individual fish. The values before drug treatment were standardised. The Z factor score was calculated using the following equation: Z = 1– [3×(σp+σn)/(µp - µn)],
where µp and σp represent mean and SD after treatment, while µn and σn represent mean and SD before treatment. Z factor scores fall into the following range: 1 = ideal, 0.5–1 = excellent, 0–0.5 = marginal, <0 = poor.

[1] = design: method as in earlier work; settings: zebrafish larvae ref 56; cited from earlier work
[2] = MESAB 0.1 mg/ml, prior anaesthesia 5–10 minutes
[3] = MESAB 0.3 mg/ml, prior anaesthesia 5–10 minutes
[4] = MESAB 0.5 mg/ml, prior anaesthesia 5–10 minutes
[5] = MESAB 1 mg/ml, prior anaesthesia 5–10 minutes
[6] = tubocurarine 100 μM, continuous exposure
[7] = tubocurarine 400 μM, continuous exposure

Molecule: CC(=O)C(C)=NO [BDM, 2,3-butanedione-monoxime]
- Adverse effects on ECG and embryo survival (3 dpf zebrafish): adverse effects on the ECG and embryo survival
- Effect on contraction of cardiomyocytes / myocardial contractility (3 dpf zebrafish): completely remove myocardial contractility

Molecule: CCOC(=O)c1cccc(N)c1.CS(=O)(=O)O [MESAB, ethyl-3 aminobenzoate methanesulfonate]
- Mean interval duration QT (3 dpf zebrafish larvae; [2]): 0.3428 s
- Mean interval duration QTc (3 dpf zebrafish larvae; [2]): 0.4944 s
- Mean interval duration RR (3 dpf zebrafish larvae; [2]): 0.4798 s
- Mean interval duration QT (3 dpf zebrafish larvae; [3]): 0.3614 s
- Mean interval duration QTc (3 dpf zebrafish larvae; [3]): 0.5049 s
- Mean interval duration RR (3 dpf zebrafish larvae; [3]): 0.5123 s
- Mean interval duration QT (3 dpf zebrafish larvae; [4]): 0.3515 s
- Mean interval duration QTc (3 dpf zebrafish larvae; [4]): 0.5012 s
- Mean interval duration RR (3 dpf zebrafish larvae; [4]): 0.4917 s
- Mean interval duration QT (3 dpf zebrafish larvae; [5]): 0.3656 s
- Mean interval duration QTc (3 dpf zebrafish larvae; [5]): 0.5133 s
- Mean interval duration RR (3 dpf zebrafish larvae; [5]): 0.5517 s
- Effect on R-R interval (3 dpf zebrafish larvae; MESAB at high concentrations (1 mg/ml), P<0.05): increase of the R-R interval
- Effect on heart rate (ƒH) (3 dpf zebrafish larvae): induced bradycardia

Molecule: CC(C)(C)c1ccc(C(O)CCCN2CCC(C(O)(c3ccccc3)c3ccccc3)CC2)cc1 (stereo not drawn) [terfenadine]
- Arrhythmia, ECG screenshot (3 dpf zebrafish larvae; 50 µM terfenadine, after 40 minutes of treatment, 3 dpf larva): arrhythmic phenotype with the presence of ectopic beats
- AV block (3 dpf zebrafish larvae; 3 dpf larvae): 2∶1 AV block
- AV block (3 dpf zebrafish larvae; 3 dpf larvae, listed as Terfenadine): induced an atrioventricular (AV) block
- Arrhythmia development (3 dpf zebrafish larvae; time and concentration-dependent, 3 dpf larvae): development of an arrhythmia
- Metabolism in zebrafish larvae [1]: almost completely metabolised to azacyclone and terfenadine alcohol

Molecule: COc1cc2c3cc1Oc1cc(ccc1O)C[C@@H]1c4c(cc(OC)c(O)c4Oc4ccc(cc4)C[C@@H]3N(C)CC2)CC[N+]1(C)C [tubocurarine]
- Effect on heart rate (ƒH) (3 dpf zebrafish larvae): did not affect ƒH at any of the tested concentrations
- Mean interval duration QT (3 dpf zebrafish larvae; [6]): 0.3263 s
- Mean interval duration QTc (3 dpf zebrafish larvae; [6]): 0.4733 s
- Mean interval duration RR (3 dpf zebrafish larvae; [6]): 0.4755 s
- Mean interval duration QT (3 dpf zebrafish larvae; [7]): 0.3306 s
- Mean interval duration QTc (3 dpf zebrafish larvae; [7]): 0.4755 s
- Mean interval duration RR (3 dpf zebrafish larvae; [7]): 0.4863 s

Molecule: O=c1[nH]c2ccccc2n1C1CCN(CCCC(c2ccc(F)cc2)c2ccc(F)cc2)CC1 [pimozide]
- Effect on QTc interval (in words) (3 dpf zebrafish larvae): statistically significant increase in the corrected QT interval
- AV block (3 dpf zebrafish larvae; 3 dpf larvae): induced an atrioventricular (AV) block
- Mean QTc interval duration, After (3 dpf zebrafish larvae; pimozide 50 µM, n = 8, before drug 0.491 s): 0.629 s
- Mean QTc interval duration, After (3 dpf zebrafish larvae; pimozide 100 µM, n = 8, before drug 0.470 s): 0.610 s

Molecule: penicillin
- Effect on QTc interval (in words) (3 dpf zebrafish larvae): no effect on the QTc interval
- Mean QTc interval duration, After (3 dpf zebrafish larvae; penicillin 0.1 µM, negative control, n = 8, before drug 0.497 s): 0.495 s
- Mean QTc interval duration, After (3 dpf zebrafish larvae; penicillin 0.3 µM, negative control, n = 8, before drug 0.487 s): 0.492 s
- Mean QTc interval duration, After (3 dpf zebrafish larvae; penicillin 10 µM, negative control, n = 8, before drug 0.490 s): 0.500 s
- Mean QTc interval duration, After (3 dpf zebrafish larvae; penicillin 30 µM, negative control, n = 8, before drug 0.494 s): 0.503 s
- Mean QTc interval duration, After (3 dpf zebrafish larvae; penicillin 50 µM, negative control, n = 8, before drug 0.489 s): 0.488 s
- Mean QTc interval duration, After (3 dpf zebrafish larvae; penicillin 100 µM, negative control, n = 8, before drug 0.506 s): 0.508 s
- Mean QTc interval duration, After (3 dpf zebrafish larvae; penicillin 200 µM, negative control, n = 8, before drug 0.478 s): 0.483 s
- Mean QTc interval duration, After (3 dpf zebrafish larvae; penicillin 300 µM, negative control, n = 8, before drug 0.457 s): 0.454 s
- Mean QTc interval duration, After (3 dpf zebrafish larvae; penicillin 400 µM, negative control, n = 8, before drug 0.514 s): 0.507 s
- Mean QTc interval duration, After (3 dpf zebrafish larvae; penicillin 1000 µM, negative control, n = 8, before drug 0.511 s): 0.501 s

Molecule: COc1ccc(CCN(C)CCCC(C#N)(c2ccc(OC)c(OC)c2)C(C)C)cc1OC (stereo not drawn) [verapamil]
- Effect on QTc interval (in words) (3 dpf zebrafish larvae): increased the QTc interval
- Mean QTc interval duration, After (3 dpf zebrafish larvae; verapamil 10 µM, n = 8, before drug 0.482 s): 0.486 s
- Mean QTc interval duration, After (3 dpf zebrafish larvae; verapamil 25 µM, n = 8, before drug 0.478 s): 0.484 s
- Mean QTc interval duration, After (3 dpf zebrafish larvae; verapamil 50 µM, n = 8, before drug 0.471 s): 0.529 s
- Mean QTc interval duration, After (3 dpf zebrafish larvae; verapamil 100 µM, n = 8, before drug 0.473 s): 0.578 s
- Mean QTc interval duration, After (3 dpf zebrafish larvae; verapamil 200 µM, n = 8, before drug 0.484 s): 0.591 s
- Mean QTc interval duration, After (3 dpf zebrafish larvae; verapamil 300 µM, n = 8, before drug 0.477 s): 0.622 s
- Mean QTc interval duration, After (3 dpf zebrafish larvae; verapamil 400 µM, n = 8, before drug 0.481 s): 0.609 s
- Mean QTc interval duration, After (3 dpf zebrafish larvae; verapamil 1000 µM, n = 8, before drug 0.466 s): 0.616 s

Molecule: CC1(C)Oc2ccc(C#N)cc2C(N2CCCC2=O)C1O (stereo not drawn) [cromakalim]
- Effect on contraction of cardiomyocytes / myocardial contractility (3 dpf zebrafish): did not reduce contraction of cardiomyocytes
- Effect on QTc interval (in words) (3 dpf zebrafish larvae): no perturbation to the QTc interval
- Mean QTc interval duration, After (3 dpf zebrafish larvae; cromakalim 10 µM, n = 5, before drug 0.458 s): 0.461 s
- Mean QTc interval duration, After (3 dpf zebrafish larvae; cromakalim 25 µM, n = 5, before drug 0.459 s): 0.460 s
- Mean QTc interval duration, After (3 dpf zebrafish larvae; cromakalim 50 µM, n = 5, before drug 0.469 s): 0.464 s
- Mean QTc interval duration, After (3 dpf zebrafish larvae; cromakalim 100 µM, n = 5, before drug 0.453 s): 0.449 s
- Mean QTc interval duration, After (3 dpf zebrafish larvae; cromakalim 200 µM, n = 5, before drug 0.476 s): 0.476 s
- Mean QTc interval duration, After (3 dpf zebrafish larvae; cromakalim 300 µM, n = 5, before drug 0.475 s): 0.472 s
- Mean QTc interval duration, After (3 dpf zebrafish larvae; cromakalim 400 µM, n = 5, before drug 0.468 s): 0.474 s

Molecule: O=C(CCCN1CCC(O)(c2ccc(Cl)cc2)CC1)c1ccc(F)cc1 [haloperidol]
- Effect on QTc interval (in words) (3 dpf zebrafish larvae): apparent QT prolongation, which was found to be similar at various concentrations
- AV block (3 dpf zebrafish larvae; 3 dpf larvae): induced an atrioventricular (AV) block and 2∶1 AV block
- Mean QTc interval duration, After (3 dpf zebrafish larvae; haloperidol 50 µM, n = 8, before drug 0.499 s): 0.586 s
- Mean QTc interval duration, After (3 dpf zebrafish larvae; haloperidol 100 µM, n = 8, before drug 0.511 s): 0.603 s
- Mean QTc interval duration, After (3 dpf zebrafish larvae; haloperidol 200 µM, n = 8, before drug 0.504 s): 0.593 s
- Mean QTc interval duration, After (3 dpf zebrafish larvae; haloperidol 300 µM, n = 8, before drug 0.480 s): 0.576 s

Molecule: Cc1ccc2c(c1)C(=O)C1(O)CCN(c3ccccc3)C1=N2 (stereo not drawn) [blebbistatin]
- Adverse effects on ECG and embryo survival (3 dpf zebrafish): adverse effects on the ECG and embryo survival
- Effect on contraction of cardiomyocytes / myocardial contractility (3 dpf zebrafish): completely remove myocardial contractility

From publication PMC3620317, “Optimisation of Embryonic and Larval ECG Measurement in Zebrafish for Quantifying the Effect of QT Prolonging Drugs” (PLoS ONE, 2013)
